In US20160271100A1, “METHOD FOR TREATING TUMORS AND RADIOTHERAPY- AND CHEMOTHERAPY-[…] OR EMOTIONAL […] CANNABINOIDS” (GLIA LLC, priority 2014, published 2016):

Experiments:
[1] = system: chemo brain and brain fog (chemotherapy-associated cognitive or emotional impairment); experiment: Daily low-dose topical dronabinol for chemo brain and brain fog induced by long term chemotherapy and radiation (single patient); settings: 2.5 mg daily applied to forehead
Description: A person was diagnosed with glioblastoma in February 2010 and underwent immediate surgery to remove the tumor. Within 6 weeks of the surgery, they began radiotherapy and chemotherapy with a combination of temozolamide, topotecan, and bevacizumab.
Beginning in December of 2012 and continuing through March of 2014, the patient, who was not undergoing any chemotherapy at this time, was treated daily with 2.5 mg of dronabinol applied to their forehead. Daily evaluation by their caretaker and quarterly evaluations by a medical institution were documented during this treatment period.

[2] = system: chemo brain and brain fog; experiment: Low dose topical dronabinol for chemo brain and brain fog induced by short-term chemotherapy (same patient)
Description: The patient was treated again with temozolamide, and bevacizumab.
Each morning, the patient was treated with dronabinol as described in Example 1 supra.

[3] = system: glioblastoma; experiment: Course of glioblastoma (MRI/PET) under chemotherapy with or without topical dronabinol (same patient); type: in vivo, human; settings: for adverse effects that led to discontinuation of chemotherapy: patient with glioblastoma
Description: By way of reminder, the patient described in the two examples set forth above was diagnosed with glioblastoma in February 2010. Approximately 95% of the tumor was surgically removed within 3 days of diagnosis. Following the surgery, the patient was treated with radiation, as well as by chemotherapy with a combination of temozolamide, topotecan, and bevacizumab. […] In May of 2011, the combination therapy was discontinued and the patient received only maintenance bevacizumab. MRI scans were performed every two months to monitor any changes in the brain.
The patient resumed chemotherapy with a combination of temozolamide, etoposide, and bevacizumab. […] The chemotherapy regimen was changed to carboplatin, irinotecan, together with bevacizumab.
As mentioned above, the patient was treated with 2.5 mg topical dronabinol beginning in December 2012 and continuing to the present.
On Mar. 19, 2014, a further increase in size of the tumor was noted. The secondary tumor was unchanged.
In early April 2014, the patient was again treated with temozolamide and bevacizumab.

[4] = system: glioblastoma tumor; settings: one human study; cited from earlier work

CCCCCc1cc(O)c2c(c1)OC(C)(C)[C@@H]1CCC(C)=C[C@@H]21 [dronabinol, (6aR,10aR)-6a,7,8,10a-tetrahydro-6,6,9-trimethyl-3-pentyl-6H-dibenzo[b,d]-pyran-1-ol]
cognitive functions, emotional skills, and social interaction skills ([1]; December 2012 to March 2014): showed daily and long term improvement
hallucinatory or adverse cognitive effects ([1]; December 2012 to March 2014): no hallucinatory or adverse cognitive effects were observed
time to signs of improved recognition, memory, and social interaction after initiation of treatment ([1]; patient not on chemotherapy): 1 to 2 days
hallucinatory or adverse cognitive effects ([2]; 2.5 mg topical each morning during chemotherapy): no hallucinatory or adverse cognitive effects were observed
time to significant diminishment of brain fog after each dose ([2]; 2.5 mg topical each morning during temozolamide and bevacizumab chemotherapy): ≤ 45 min
duration of the effects of administration ([2]; 2.5 mg topical each morning, six-week period): lasted until the following morning
tumor response by MRI, chemotherapy co-administered with topical dronabinol ([3]; 2.5 mg topical dronabinol continued with temozolamide and bevacizumab, MRI 6 weeks after initiation of chemotherapy): shrinkage of both the primary tumor that had regrown into the extirpated space and the secondary tumor
primary tumor by MRI, topical dronabinol without chemotherapy ([3]; 2.5 mg topical dronabinol, MRI December 6, 2013 and Mar. 19, 2014): increase in size of the primary tumor
secondary tumor by MRI, topical dronabinol without chemotherapy ([3]; 2.5 mg topical dronabinol, Mar. 19, 2014): unchanged

CCCCCc1cc(O)c2c(c1)OC(C)(C)[C@@H]1CCC(C)=C[C@@H]21 [THC, tetrahydrocannabinol]
benefit of THC instilled into a glioblastoma tumor [4]: failed to demonstrate a clear-cut benefit

Bevacizumab: chemotherapy agent
adverse effects that led to discontinuation of chemotherapy [3]: hypertension and proteinuria

O=NN(CCCl)C(=O)NC1CCCCC1 [lomustine]
adverse effects that led to discontinuation of chemotherapy [3]: hypertension and proteinuria
